Data on 24 compounds can be found in patent US5936097A, “4,9-ethano-benzo(F)isoindole derivatives as farnesyl transferase inhibitors” (Rhone-Poulenc Rorer, S.A., priority 1995, dated 1999).

pIC50: −log10 of the molar value. Structures can show the parent of a compound that is named as a salt.

Usually pIC50 stands for −log10 of the IC50, conventionally taken in molar units.

The target in the first assay is T1, human farnesyl transferase (Homo sapiens, UniProt P49354+P49356).
T1 construct: human farnesyl transferase purified from THP1 cell cultures; endogenous in cells; host or cells: THP1 cell cultures (enzyme purified from the cells)
As to the kind of experiment: inhibition of farnesyl transferase ((3H) farnesyl transfer from (3H) FPP to p21 H-ras). The class given is biochemical.
Settings: not given
The procedure, abridged: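 Radiometric transfer of [3H]farnesyl from 4.5 pmol [3H]FPP to 200 pmol p21 H-ras by ~5 ng human enzyme purified from THP1 cells, in 50 mM Tris-HCl, 5 mM MgCl2, 5 mM DTT, 0.2% octyl glucoside, 20 min at 37 °C. Protein precipitated with SDS/TCA in methanol, filter-bound counts measured; IC50 from 9 concentrations, triplicate.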
`O=C(Cc1ccccc1O)N1C[C@@H]2[C@]3(c4ccccc4)CC[C@@H](c4ccccc43)[C@]2(C(=O)O)C1` (relative stereo) [Example 60, (3aRS,4SR,9SR,9aRS)-4,9-Ethano-2-(2-hydroxyphenyl)acetyl-9-phenyl-2,3,3a,4,9,9a-hexahydro-1H-benzo[f]isoindole-3a-carboxylic acid]: the pIC50 was 5.74.

Turning to `COc1ccccc1[C@@H](C)C(=O)N1CC2C3(c4ccccc4)CCC(c4ccccc43)C2(C(=O)O)C1` (single isomer, unassigned) [Example 33], the pIC50 was 5.69.

`O=C(Cc1ccccc1Cl)N1C[C@@H]2[C@]3(c4ccccc4)CC[C@@H](c4ccccc43)[C@]2(C(=O)O)C1` (relative stereo) [Example 61, (3aRS,4SR,9SR,9aRS)-4,9-Ethano-2-(2-chlorophenyl)acetyl-9-phenyl-2,3,3a,4,9,9a-hexahydro-1H-benzo[f]isoindole-3a-carboxylic acid]: the pIC50 is 5.33.

Compound `COc1ccccc1CCC(=O)N1C[C@@H]2[C@]3(c4ccccc4)CC[C@@H](c4ccccc43)[C@]2(C(=O)O)C1` (relative stereo) [Example 59, (3aRS,4SR,9SR,9aRS)-4,9-Ethano-2-(2-methoxyphenyl)propionyl-9-phenyl-2,3,3a,4,9,9a-hexahydro-1H-benzo[f]isoindole-3a-carboxylic acid] had a pIC50 of 5.30.

The assay is the same for the next values; noted with them: human farnesyl transferase purified from THP1 cell cultures; p21 H-ras substrate; 20 minutes at 37° C.; 9 concentrations; read-out: in vitro inhibitory activity IC50.
As for `COc1ccccc1CC(=O)N1CC2C3(c4ccccc4)CCC(c4ccccc43)C2(C(=O)N[C@@H](CCSC)C(=O)O)C1` (stereo partly drawn) [Example 51, N-[(3aRS,4SR,9SR,9aRS)-4,9-ethano-2-(2-methoxy-phenyl)acetyl-9-phenyl-2,3,3a,4,9,9a-hexahydro-1H-benzo[f]isoindol-3a-yl]carbonyl-L-methionine], the pIC50 was 6.82.

For the compound `C=C(C(=O)N1C[C@H]2[C@@]3(c4ccccc4)CC[C@H](c4ccccc43)[C@@]2(C(=O)N[C@H](C)c2cccc3ccccc23)C1)c1ccccc1OC` [Example 83, (3aS,4R,9R,9aS)-N-[(R)-1-(1-naphthyl)ethyl]-4,9-ethano-2-[(2-methoxyphenyl)prop-2-en-1-oyl]-9-phenyl-2,3,3a,4,9,9a-hexahydro-1H-benzo[f]isoindole-3a-carboxamide], the pIC50 was 5.29.

As for `COc1ccccc1CC(=O)N1C[C@H]2[C@@]3(c4ccccc4)CC[C@H](c4ccccc43)[C@@]2(C(=O)NC(CC(=O)O)C(=O)O)C1` (stereo partly drawn) [Example 6, N-[(3aRS, 4SR, 9SR, 9aRS)-4,9-ethano-2-(2-methoxyphenyl)acetyl-9-phenyl-2,3,3a,4,9,9a-hexahydro-1H-benzo[f]isoindolyl-3a-carbonyl]aspartic acid], the pIC50 was 5.96.

Regarding `COc1ccccc1CC(=O)N1C[C@H]2[C@@]3(c4ccccc4)CC[C@H](c4ccccc43)[C@@]2(NC(=O)C(N)CCSC)C1` (stereo partly drawn) [Example 13, (3aRS, 4SR, 9SR, 9aRS)-3a-methionylamino-4,9-ethano-2-(2-methoxyphenyl)acetyl-9-phenyl-2,3,3a,4,9,9a-hexahydro-1H-benzo[f]isoindole], the pIC50 was 5.06.

`C=C(C(=O)N1C[C@H]2[C@@]3(c4ccccc4)CC[C@H](c4ccccc43)[C@@]2(C(=O)NC2CCc3ccccc32)C1)c1ccccc1OC` (stereo partly drawn) [Example 84, (3aS,4R,9R,9aS)-N-[(R,S)-1-indanyl]-4,9-ethano-2-[(2-methoxyphenyl)prop-2-en-1-oyl]-9-phenyl-2,3,3a,4,9,9a-hexahydro-1H-benzo[f]isoindole-3a-carboxamide]: the pIC50 is 6.48.

Regarding `CC(=O)Oc1ccccc1CC(=O)N1C[C@H]2[C@@]3(c4ccccc4)CC[C@H](c4ccccc43)[C@@]2(C(=O)O)C1` (relative stereo) [Example 29, (3aRS, 4SR, 9SR, 9aRS)-4,9-ethano-2-(2-acetoxyphenyl)acetyl-9-phenyl-2,3,3a,4,9,9a-hexahydro-1H-benzo[f]isoindole-3a-carboxylic acid], the pIC50 was 5.64.

Regarding `CNC(=O)[C@@]12CN(C(=O)Cc3ccccc3OC)C[C@@H]1[C@]1(c3ccccc3)CC[C@H]2c2ccccc21` (relative stereo) [Example 54, (3aRS,4SR,9SR,9aRS)-N-methyl-4,9-ethano-2-(2-methoxyphenyl)acetyl-9-phenyl-2,3,3a,4,9,9a-hexahydro-1H-benzo[f]isoindole-3a-carboxamide], the pIC50 was 5.33.

On to `COc1ccccc1CC(=O)N1C[C@H]2[C@@]3(c4ccccc4)CC[C@H](c4ccccc43)[C@@]2(C(=O)N(C)OC)C1` (relative stereo) [Example 68, (3aRS,4SR,9SR,9aRS)-N-methoxy-N-methyl-4,9-ethano-2-(2-methoxy-phenyl)acetyl-9-phenyl-2,3,3a,4,9,9a-hexahydro-1H-benzo[f]isoindole-3a-carboxamide], for which the pIC50 was 5.65.

Consider `COc1ccc2c(c1)[C@]1(c3ccccc3)CC[C@H]2[C@@]2(C(=O)O)CN(C(=O)Cc3ccccc3OC)C[C@@H]12` (relative stereo) [Example 70, (3aRS,4SR,9SR,9aRS)-4,9-ethano-7-methoxy-2-(2-methoxy-phenyl)acetyl-9-phenyl-2,3,3a,4,9,9a-hexahydro-1H-benzo[f]isoindole-3a-carboxylic acid], for which the pIC50 is 5.55.

Consider `CCOC(=O)[C@]12CN(C(=O)Cc3ccccc3OC)C[C@H]1[C@@]1(c3ccccc3)CC[C@@H]2c2ccccc21` (relative stereo) [Example 10, ethyl ester of (3aRS, 4SR, 9SR, 9aRS)-4,9-ethano-2-(2-methoxyphenyl)acetyl-9-phenyl-2,3,3a,4,9,9a-hexahydro-1H-benzo[f]isoindol-3a-carboxylic acid], for which the pIC50 was 5.36.

For the compound `COc1ccccc1CC(=O)N1C[C@@H]2[C@]3(c4ccccc4)CC[C@@H](c4ccccc43)[C@]2(C(=O)NN)C1` (relative stereo) [Example 58, hydrazide of (3aRS,4SR,9SR,9aRS)-4,9-ethano-2-(2-methoxyphenyl)acetyl-9-phenyl-2,3,3a,4,9,9a-hexahydro-1H-benzo[f]isoindole-3a-carboxylic acid], the pIC50 is 5.30.

For the compound `CCOC(=O)CC(=O)N[C@]12CN(C(=O)Cc3ccccc3OC)C[C@H]1[C@@]1(c3ccccc3)CC[C@@H]2c2ccccc21` (relative stereo) [Example 15, (3aRS, 4SR, 9SR, 9aRS)-4,9-ethano-3a-ethoxycarbonylacetylamino-2-(2-methoxyphenyl)acetyl-9-phenyl-2,3,3a,4,9,9a-hexahydro-1H-benzo[f]isoindole], the pIC50 was 5.05.

In the case of `O=C(Cc1ccccc1OCCCN1CCCC1)N1C[C@H]2[C@@]3(c4ccccc4)CC[C@H](c4ccccc43)[C@@]2(C(=O)O)C1` (relative stereo) [Example 32, hydrochloride of (3aRS, 4SR, 9SR, 9aRS)-4,9-ethano-2-[2-(3-pyrrolidinylpropyl)oxyphenyl]-acetyl-9-phenyl-2,3,3a,4,9,9a-hexahydro-1H-benzo[f]isoindole-3a-carboxylic acid], the pIC50 was 5.88.

For `C/C=C(/C(=O)N1C[C@@H]2[C@]3(c4ccccc4)CC[C@@H](c4ccccc43)[C@]2(C(=O)O)C1)c1ccccc1OC` (racemic) [Example 78, (3aRS,4SR,9SR,9aRS)-4,9-ethano-2-[2(E)-(2-methoxyphenyl)-2-butenoyl]-9-phenyl-2,3,3a,4,9,9a-hexahydro-1H-benzo[f]isoindole-3a-carboxylic acid], the pIC50 was 6.19.

On to `COc1ccccc1CC(=O)N1C[C@H]2[C@@]3(c4ccccc4)CC[C@H](c4ccccc43)[C@@]2(CC(=O)NCC(=O)O)C1` (relative stereo) [Example 20, N-[(3aRS, 4SR, 9SR, 9aRS)-4,9-ethano-2-(2-methoxyphenyl)acetyl-9-phenyl-2,3,3a,4,9,9a-hexahydro-1H-benzo[f]isoindol-3a-yl]acetylglycine], for which the pIC50 is 5.32.

Consider `COC(=O)CNC(=O)[C@]12CN(C(=O)Cc3ccccc3OC)C[C@H]1[C@@]1(c3ccccc3)CC[C@@H]2c2ccccc21` (relative stereo) [Example 69, methyl ester of N-[(3aRS,4SR,9SR,9aRS)-4,9-ethano-2-(2-methoxyphenyl)acetyl-9-phenyl-2,3,3a,4,9,9a-hexahydro-1H-benzo[f]isoindol-3a-yl]carbonylglycine], for which the pIC50 was 5.04.

On to `COc1ccc(CSSCc2ccc(OC)c(CC(=O)N3CC4C5(c6ccccc6)CCC(c6ccccc65)C4(C(=O)O)C3)c2)cc1CC(=O)N1CC2C3(c4ccccc4)CCC(c4ccccc43)C2(C(=O)O)C1` (racemic) [Example 37, disulphide of (3aRS, 4SR, 9SR, 9aRS)-4,9-ethano-2-(2-methoxy-5-(mercaptomethyl)-phenyl)acetyl-9-phenyl-2,3,3a,4,9,9a-hexahydro-1H-benzo[f]isoindole-3a-carboxylic acid], for which the pIC50 is 5.13.

For the compound `C=Cc1ccc2c(c1)[C@]1(c3ccccc3)CC[C@H]2[C@@]2(C(=O)O)CN(C(=O)Cc3ccccc3OC)C[C@@H]12` (relative stereo) [Example 73, (3aRS,4SR,9SR,9aRS)-4,9-ethano-2-(2-methoxyphenyl)acetyl-9-phenyl-7-vinyl-2,3,3a,4,9,9a-hexahydro-1H-benzo[f]isoindole-3a-carboxylic acid], the pIC50 is 5.50.

Regarding `C=C(C(=O)N1CC2C3(c4ccccc4)CCC(c4ccccc43)C2(C(=O)N[C@H](C)c2ccccc2)C1)c1ccccc1OC` (single isomer, unassigned) [Example 9], the pIC50 was 6.72.

With `COc1ccccc1CC(=O)N1C[C@H]2[C@@]3(c4ccccc4)CC[C@H](c4ccccc43)[C@@]2(NC(=O)CN)C1` (relative stereo) [Example 12, (3aRS, 4SR, 9SR, 9aRS)-3a-glycylamino-4,9-ethano-2-(2-methoxyphenyl)acetyl-9-phenyl-2,3,3a,4,9,9a-hexahydro-1H-benzo[f]isoindole], the pIC50 was 5.12.
